The target in the test is Endoplasmic reticulum aminopeptidase 2 (Homo sapiens) (UniProt Q6P179). Kind of test: ERAP2 activation by compounds, dose response, selectivity assay for selective ERAP1 modulator project, biochemical, fluorescence plate reader, cherry-picked samples (AID 743319). The settings on record: recombinant ERAP2, Arg-AMC cleavage fluorescence, 1 h.

Molecules are shown by their SMILES. Active and inactive are the calls of the source.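 The calls were made as follows: active = fitted curve reaches 200% activation at or below the highest valid dose tested for that compound; inconclusive = flat fit between 30 and 70% activation, or unreliable fit; inactive = the rest.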

Sequence of Endoplasmic reticulum aminopeptidase 2 (Homo sapiens) (Q6P179 whole entry, looked up): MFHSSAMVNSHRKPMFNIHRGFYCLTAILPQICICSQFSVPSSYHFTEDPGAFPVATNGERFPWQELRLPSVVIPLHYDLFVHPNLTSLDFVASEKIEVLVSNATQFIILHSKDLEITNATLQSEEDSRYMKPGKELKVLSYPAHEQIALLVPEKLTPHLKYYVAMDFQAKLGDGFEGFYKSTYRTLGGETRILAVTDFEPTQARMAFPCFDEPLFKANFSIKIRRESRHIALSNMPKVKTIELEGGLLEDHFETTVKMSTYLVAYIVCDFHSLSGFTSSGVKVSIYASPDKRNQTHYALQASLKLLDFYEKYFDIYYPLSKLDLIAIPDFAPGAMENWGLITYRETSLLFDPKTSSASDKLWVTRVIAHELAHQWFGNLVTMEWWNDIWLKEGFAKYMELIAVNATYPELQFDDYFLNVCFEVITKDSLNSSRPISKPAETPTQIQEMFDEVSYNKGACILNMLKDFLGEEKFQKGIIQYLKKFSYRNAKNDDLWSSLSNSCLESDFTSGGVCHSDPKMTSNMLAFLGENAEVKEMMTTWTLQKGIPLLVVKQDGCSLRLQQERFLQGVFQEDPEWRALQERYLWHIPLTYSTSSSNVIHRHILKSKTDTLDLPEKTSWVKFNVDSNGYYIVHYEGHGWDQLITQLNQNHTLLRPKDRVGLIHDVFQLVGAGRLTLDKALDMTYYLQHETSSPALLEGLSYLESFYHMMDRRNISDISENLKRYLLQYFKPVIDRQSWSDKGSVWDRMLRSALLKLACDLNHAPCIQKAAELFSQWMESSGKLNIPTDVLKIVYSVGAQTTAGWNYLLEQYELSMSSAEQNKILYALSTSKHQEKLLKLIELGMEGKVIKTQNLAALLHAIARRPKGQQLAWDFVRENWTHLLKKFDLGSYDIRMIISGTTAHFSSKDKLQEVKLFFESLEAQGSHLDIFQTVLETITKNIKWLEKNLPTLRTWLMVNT

As for `CNC[C@H]1OCCCC[C@@H](C)Oc2ccc(NS(=O)(=O)c3ccc(C)cc3)cc2C(=O)N([C@@H](C)CO)C[C@H]1C`, for the setting “at 11 µM (top of the series)”, the activation was 1.54% (inactive).

For `COc1ccc(CN(C)C[C@@H]2OCCCC[C@@H](C)Oc3ccc(NS(=O)(=O)c4cccs4)cc3C(=O)N([C@H](C)CO)C[C@@H]2C)cc1`, under “at 11 µM (top of the series)”, the activation was 10.9% (inactive). Turning to `COc1cccc(S(=O)(=O)N(C)C[C@@H]2Oc3ncccc3C(=O)N([C@H](C)CO)C[C@@H]2C)c1`, the activation (at 11 µM (top of the series)) was 4.98% (inactive).

On to `CCN(CC)Cc1c(O)c(Cl)cc2c(C)cc(=O)oc12`, for which the AC200 was 1240 nM. Take `C[C@@H]1CCCCO[C@@H](CN(C)C)[C@H](C)CN([C@@H](C)CO)C(=O)c2cc(NC(=O)Nc3ccc(C(F)(F)F)cc3)ccc2O1`: for the setting “at 10 µM (top of the series)”, the activation was 14.3% (inactive). Take `O=c1oc2c(CN3CCN(CCO)CC3)c(O)ccc2cc1-c1ccccn1`: the AC200 is 606 nM.

Take `CCN1CCN(Cc2c(O)ccc3c(C)cc(=O)oc23)CC1`: the AC200 was 3230 nM. Take `CCNC(=O)[C@@H]1[C@@H](CO)[C@@H]2Cn3c(ccc(/C=C/c4ccccc4)c3=O)[C@H]1N2C(=O)C1CCCC1`: the AC200 was 1590 nM.

Take `COc1cc2cc(C(=O)N3CCN(Cc4ccc5c(c4)OCO5)CC3)c(=O)oc2cc1OC`: the AC200 is > 5600 nM (inactive). As to `Cc1ccc(S(=O)(=O)c2cc3ccc(O)cc3oc2=O)cc1C`, the AC200 is 721 nM. Same read-out and setting: the value for `O=c1ccc2cc(O[C@@H]3O[C@H](CO)[C@@H](O)[C@H](O)[C@H]3O)c(O)cc2o1` was 687 nM.

On to `Cc1ccc(S(=O)(=O)Nc2ccc3c(c2)C(=O)N([C@@H](C)CO)C[C@H](C)[C@H](CN(C)C)OCCCC[C@@H](C)O3)cc1`, for which, under “at 11 µM (top of the series)”, the activation is 14.1% (inactive). Same read-out and setting: the value for `NC(=NCCc1c[nH]c2ccccc12)NS(=O)(=O)c1cc(F)ccc1F` was 9.24% (inactive). As for `Cc1noc(C)c1S(=O)(=O)N(C)C[C@@H]1OCCCC[C@@H](C)Oc2ccc(NS(=O)(=O)c3cccs3)cc2C(=O)N([C@@H](C)CO)C[C@@H]1C`, for the setting “at 10 µM (top of the series)”, the activation was 21.7% (inactive).

Turning to `COc1ccc(CN(C)C[C@H]2OCCCC[C@@H](C)Oc3ccc(NS(=O)(=O)c4cccs4)cc3C(=O)N([C@@H](C)CO)C[C@H]2C)cc1`, where the note is “at 11 µM (top of the series)”, the activation was 2.79% (inactive). Regarding `COc1ccc(NC(=O)Nc2ccc3c(c2)C(=O)N([C@H](C)CO)C[C@@H](C)[C@H](CN(C)Cc2ccc(C(=O)O)cc2)OCCCC[C@@H](C)O3)cc1`, the activation (at 11 µM (top of the series)) was 12.3% (inactive). The same measure, in the same setting: then `COc1ccc(C(=O)O)cc1S(=O)(=O)Nc1cc(C(F)(F)F)ccc1N1CCCCC1`, with 8.35% (inactive); and `Cc1noc(C)c1S(=O)(=O)Nc1ccc2c(c1)C(=O)N([C@H](C)CO)C[C@@H](C)[C@@H](CN(C)CC1CCCCC1)OCCCC[C@@H](C)O2`, with 1.44% (inactive); and `C[C@@H]1CN([C@H](C)CO)C(=O)c2cccc(NC(=O)Nc3ccccc3)c2O[C@@H]1CN(C)Cc1ccc(C(=O)O)cc1`, with 23.3% (inactive). Turning to `O=C(NCc1ccccn1)[C@@H]1[C@@H](CO)[C@@H]2Cn3c(ccc(/C=C/c4ccccc4)c3=O)[C@H]1N2CC1CC1`, the AC200 is 2270 nM.

`COc1ccc(CN(C)C[C@@H]2OCCCC[C@H](C)Oc3ccc(NS(=O)(=O)c4cccs4)cc3C(=O)N([C@H](C)CO)C[C@@H]2C)cc1`: for the setting “at 11 µM (top of the series)”, the activation is 10.2% (inactive). Take `COCCCn1c(C(=O)N2CCOCC2)cc2c(=O)n3ccccc3nc21`: the AC200 was 6360 nM. Turning to `COc1ccc2c3c([nH]c2c1)[C@H](CO)N(Cc1cc(F)ccc1F)CC31CN(C)C1`, the activation (at 11 µM (top of the series)) was 11.2% (inactive). In the case of `CCCN1[C@@H]2c3ccc(/C=C/c4ccccc4)c(=O)n3C[C@H]1[C@H](CO)[C@H]2C(=O)NCc1ccccn1`, the AC200 is 2190 nM. Same read-out and setting: then `CCN1[C@@H]2c3ccc(/C=C/c4ccccc4)c(=O)n3C[C@H]1[C@H](CO)[C@H]2C(=O)N1CCOCC1`, with 3520 nM. For `C[C@@H]1CCCCO[C@@H](CN(C)Cc2ccccc2)[C@H](C)CN([C@H](C)CO)C(=O)c2cc(NS(=O)(=O)c3cccs3)ccc2O1`, the activation (at 11 µM (top of the series)) is 6.39% (inactive). Take `COc1cccc(CN(C)Cc2cc(=O)oc3cc(O)c(Cl)cc23)c1`: the AC200 is 1620 nM. Consider `C[C@H]1CN([C@@H](C)CO)C(=O)c2cccc(NC(=O)Nc3ccc(F)cc3)c2O[C@@H]1CN(C)C(=O)Nc1ccc2c(c1)OCO2`, for which the activation (at 11 µM (top of the series)) is 18.2% (inactive).

Take `C[C@@H]1CCCCO[C@H](CN(C)C)[C@H](C)CN([C@H](C)CO)C(=O)c2cc(NS(=O)(=O)c3ccc(Cl)cc3)ccc2O1`: the activation (at 11 µM (top of the series)) is 16.7% (inactive). Consider `Cc1cc(=O)oc2c(CN3CCCCC3)c(O)ccc12`, for which the AC200 was 1920 nM. As for `C[C@H](CO)N1C[C@H](C)[C@H](CN(C)Cc2ccc(C(=O)O)cc2)Oc2c(NC(=O)Nc3ccccc3)cccc2C1=O`, the activation (at 11 µM (top of the series)) was 22.8% (inactive). Take `O=c1ccc2cc(O)c(O)cc2o1`: the AC200 is 3270 nM. Consider `COc1ccc(NC(=O)Nc2ccc3c(c2)C(=O)N([C@H](C)CO)C[C@@H](C)[C@@H](CN(C)Cc2ccc(C(=O)O)cc2)OCCCC[C@@H](C)O3)cc1`, for which, under “at 11 µM (top of the series)”, the activation is 2.96% (inactive). Regarding `CCCN(C)C[C@@H]1OCCCC[C@@H](C)Oc2ccc(NS(=O)(=O)c3ccc(OC)cc3)cc2C(=O)N([C@H](C)CO)C[C@@H]1C`, for the setting “at 8 µM (top of the series)”, the activation is 15.1% (inactive). Regarding `C[C@@H]1CCCCO[C@@H](CN(C)Cc2ccc(C(=O)O)cc2)[C@@H](C)CN([C@H](C)CO)C(=O)c2cc(NC(=O)Nc3cccc4ccccc34)ccc2O1`, the activation (at 11 µM (top of the series)) was 5.34% (inactive).

As to `CCN(CC)Cc1c(O)ccc2cc(-c3nc4ccccc4n3C)c(=O)oc12`, the AC200 is 436 nM. For the compound `C[C@@H]1CCCCO[C@H](CN(C)Cc2ccccc2)[C@H](C)CN([C@H](C)CO)C(=O)c2cc(NS(=O)(=O)c3ccccc3)ccc2O1`, the activation (at 11 µM (top of the series)) was 22.4% (inactive). Turning to `O=c1ccc2cc(OC3O[C@H](CO)[C@@H](O)[C@H](O)[C@H]3O)c(O)cc2o1` (stereo not given in full), the AC200 was 857 nM. Same read-out and setting: then `CCCc1cc(=O)oc2c(CN(CC)CC)c(O)c(Cl)cc12`, with 1330 nM; and `CCc1cc(=O)oc2c(CNCc3c(F)cccc3Cl)c(O)ccc12`, with 1870 nM. As to `Cc1noc(C)c1NC(=O)N(C)C[C@@H]1Oc2c(NC(=O)Nc3ccc(F)cc3)cccc2C(=O)N([C@H](C)CO)C[C@@H]1C`, the activation (at 11 µM (top of the series)) was 18.4% (inactive). On the same count and under the same terms, the value for `C[C@@H]1CCCCO[C@@H](CN(C)CC2CC2)[C@@H](C)CN([C@H](C)CO)C(=O)c2cc(NS(=O)(=O)c3ccc(Cl)cc3)ccc2O1` was 18.4% (inactive).

For `CC(=O)N1[C@@H]2c3ccc(/C=C/c4ccccc4)c(=O)n3C[C@H]1[C@H](CO)[C@H]2C(=O)N(C)C`, the AC200 is 1570 nM. Consider `C[C@@H]1CCCCO[C@@H](CN(C)C(=O)CCC(F)(F)F)[C@@H](C)CN([C@@H](C)CO)C(=O)c2cc(NS(=O)(=O)c3ccc(Cl)cc3)ccc2O1`, for which the AC200 was > 10000 nM (inactive). On the same count and under the same terms, then `Cc1c(-c2ccccc2)c(=O)oc2cc(O)ccc12`, with 2340 nM; and `Cc1c(O)ccc2cc(S(=O)(=O)c3ccccc3)c(=O)oc12`, with 860 nM. As for `O=C(C[C@@H]1CC[C@@H]2[C@H](COC[C@H](O)CN2C(=O)Nc2cccc(Cl)c2)O1)N1CCCCC1`, the activation (at 11 µM (top of the series)) is 2.69% (inactive). Same read-out and setting: the value for `N#Cc1c(N2CCNCC2)nc(-c2ccco2)c2c1CCCC2` was 31.3% (inactive).

Regarding `C[C@@H]1CCCCO[C@@H](CN(C)C(=O)CCC(F)(F)F)[C@@H](C)CN([C@@H](C)CO)C(=O)c2cc(NS(=O)(=O)c3ccccc3)ccc2O1`, the activation (at 2.6 µM (top of the series)) is 14.4% (inactive).

Regarding `CCn1cc(CN2CCCC(C(=O)Nc3ccc(-c4nc5ccccc5[nH]4)cc3)C2)c(C)n1` (stereo not given), the activation (at 11 µM (top of the series)) is 4.78% (inactive). Same read-out and setting: the value for `COc1ccc(NC(=O)Nc2ccc3c(c2)C(=O)N([C@@H](C)CO)C[C@@H](C)[C@H](CN(C)Cc2ccc(C(=O)O)cc2)OCCCC[C@H](C)O3)cc1` was 37.6% (inactive). As for `CN1[C@@H]2Cn3c(ccc(/C=C/c4ccccc4)c3=O)[C@H]1[C@@H](C(=O)NC1CCCC1)[C@@H]2CO`, the AC200 was 1900 nM.

On to `C[C@H](CO)N1C[C@H](C)[C@@H](CN(C)CC2CC2)Oc2c(NC(=O)Nc3ccc(C(F)(F)F)cc3)cccc2C1=O`, for which, for the setting “at 11 µM (top of the series)”, the activation is -20.2% (inactive). The same measure, in the same setting: then `Cc1ccccc1-c1ccc2c(c1)O[C@@H](CN(C)Cc1ccc(C(=O)O)cc1)[C@@H](C)CN([C@H](C)CO)S2(=O)=O`, with 8.67% (inactive).

On to `COc1ccc(C2=NN(c3ccc(C(=O)O)cc3)C(c3ccc(OC)c(OC)c3)C2)cc1` (stereo not given), for which the AC200 was 1580 nM. Still for that read-out and setting: then `CC(=O)N1[C@@H]2c3ccc(/C=C/c4ccccc4)c(=O)n3C[C@H]1[C@H](CO)[C@H]2C(=O)N1CCOCC1`, with 2030 nM. `C[C@H](CO)N1C[C@H](C)[C@H](CN(C)CC2CCCCC2)Oc2c(NC(=O)Nc3ccc4c(c3)OCO4)cccc2C1=O`: the activation (at 11 µM (top of the series)) is -0.254% (inactive).

For `O=c1cc(CN2CCN(Cc3ccccc3)CC2)c2ccc(O)cc2o1`, the AC200 was 3540 nM. The same measure, in the same setting: then `O=S(=O)(O)c1ccc(N2N=C(c3ccccc3)CC2c2ccccc2)cc1` (stereo not given), with 2050 nM. For the compound `COc1ccc(CN(C)C[C@@H]2OCCCC[C@H](C)Oc3ccc(NS(=O)(=O)c4cccs4)cc3C(=O)N([C@@H](C)CO)C[C@@H]2C)cc1`, the activation (at 11 µM (top of the series)) was 20.4% (inactive). The same measure, in the same setting: then `CC(=O)N1CCN(C(=O)C2(NC(=O)Nc3ccc(C)cc3)CCCCC2)CC1`, with 2.05% (inactive); and `CCCN(C)C[C@@H]1OCCCC[C@@H](C)Oc2ccc(NS(=O)(=O)c3ccc(F)cc3)cc2C(=O)N([C@H](C)CO)C[C@@H]1C`, with 10.6% (inactive). For `Cc1c(CC(=O)N2CCN(C(=O)C3COc4ccccc4O3)CC2)c(=O)oc2cc(O)c(Cl)cc12` (stereo not given), the AC200 was 1520 nM. Take `O=C(O)c1ccccc1NS(=O)(=O)c1cccc(-n2sc3ccccc3c2=O)c1`: the activation (at 11 µM (top of the series)) was 3.47% (inactive). Take `CCC(=O)N1[C@@H]2c3ccc(/C=C/c4ccccc4)c(=O)n3C[C@H]1[C@H](CO)[C@H]2C(=O)N(C)C`: the AC200 was 1690 nM.

The record behind these values is PubChem BioAssay AID743319 (Broad Institute, 2014).
